Measured values reported in patent US20110009265A1, “Herbicidal Compositions Comprising Pyroxasulfone” (BASF SE, priority 2008, published 2011).
Like-named read-outs stand apart in the source and are kept apart here.

What was measured:
Type in all cases: in vivo
Thlaspi arvense (THLAR) [1] = test: greenhouse pre-emergence herbicidal activity; conditions: 125 g ai/ha, read-out: observed % activity
From the text: (§1) For the pre-emergence treatment, directly after sowing the active compounds, which had been suspended or emulsified in water, were applied by means of finely distributed nozzles. The containers were irrigated gently to promote germination and growth and subsequently covered with transparent plastic hoods until plant had rooted. This cover caused uniform germination of the tests plants, unless this was adversely affected by active compounds.
(§2) The respective herbicides A and/or safener were formulated as 10% by weight strength suspension concentrate and introduced to the spray liquor with the amount of solvent system used for applying the active compound. Herbicide B and/or safener were used as commercially available formulations and introduced to the spray liquor with the amount of solvent system used for applying the active compound. In the examples, the solvent used was water.
(§3) Pendimethalin was used as a commercial aqueous suspension concentrate having an active ingredient concentration of 400 g/l.
(§4) The test period extended over 21 days. During this time, the plants were tended, and their response to the treatments with active compound was evaluated.
(§5) The evaluation for the damage caused by the chemical compositions was carried out using a scale from 0 to 100%, compared to the untreated control plants. Here, 0 means no damage and 100 means complete destruction of the plants.
(§6) The value E, which is to be expected if the activity of the individual compounds is just additive, was calculated using the method of S. R. Colby (1967) “Calculating synergistic and antagonistic responses of herbicide combinations”, Weeds 15, p. 22 ff.
(§7) where • X=effect in percent using herbicide A at an application rate a; • Y=effect in percent using herbicide B at an application rate b; • E=expected effect (in %) of A+B at application rates a+b.
(§8) If the value observed in this manner is higher than the value E calculated according to Colby, a synergistic effect is present.

Galium aparine (GALAP) = test: greenhouse pre-emergence herbicidal activity; conditions: read-out: observed % activity; for inhibition at 125 g/ha: 125 g ai/ha; for inhibition at 250 g/ha: 250 g ai/ha
From the text: as §1, §2, §3, §4, §5, §6, §7, §8

Veronica persica (VERPE) = test: greenhouse pre-emergence herbicidal activity; conditions: read-out: observed % activity; for inhibition at 250 g/ha: 250 g ai/ha; for inhibition at 500 g/ha: 500 g ai/ha; for inhibition at 1000 g/ha: 1000 g ai/ha
From the text: as §1, §2, §3, §4, §5, §6, §7, §8

[2] = system: Phalaris canariensis (PHACA); test: greenhouse pre-emergence herbicidal activity; conditions: read-out: observed % activity; for inhibition at 125 g/ha: 125 g ai/ha; for inhibition at 250 g/ha: 250 g ai/ha
From the text: as §1, §2, §3, §4, §5, §6, §7, §8

Bromus inermis (BROIN) = test: greenhouse pre-emergence herbicidal activity; conditions: read-out: observed % activity; for inhibition at 125 g/ha: 125 g ai/ha; for inhibition at 250 g/ha: 250 g ai/ha
From the text: as §1, §2, §3, §4, §5, §6, §7, §8

Avena fatua (AVEFA) = test: greenhouse pre-emergence herbicidal activity; conditions: 125 g ai/ha, read-out: observed % activity
From the text: as §1, §2, §3, §4, §5, §6, §7, §8

[3] = system: Capsella bursa-pastoris (CAPBP); test: greenhouse pre-emergence herbicidal activity; conditions: 500 g ai/ha, read-out: observed % activity
From the text: as §1, §2, §3, §4, §5, §6, §7, §8

Thlaspi arvense (THLAR) [4] = test: greenhouse post-emergence herbicidal activity; conditions: for inhibition at 250 g/ha: Thlaspi arvense, read-out: observed % activity
From the text: (§9) For the post-emergence treatment, the test plants were first grown to a height of 3 to 20 cm, depending on the plant habit, and only then treated. Here, the herbicidal compositions were suspended or emulsified in water as distribution medium and sprayed using finely distributing nozzles.
as §2, §3, §4, §5, §6, §7, §8

[5] = system: Alopecurus myosuroides (ALOMY); test: greenhouse post-emergence herbicidal activity; conditions: 250 g ai/ha; for inhibition at 250 g/ha: Alopecurus myosuroides, read-out: observed % activity
From the text: as §9, §2, §3, §4, §5, §6, §7, §8

[6] = system: Capsella bursa-pastoris (CAPBP); test: greenhouse post-emergence herbicidal activity; conditions: 1000 g ai/ha, 20 DAT
From the text: as §9, §2, §3, §4, §5, §6, §7, §8

[7] = system: Amaranthus retroflexus (AMARE); test: greenhouse post-emergence herbicidal activity; conditions: 500 g ai/ha, 20 DAT
From the text: as §9, §2, §3, §4, §5, §6, §7, §8

Viola arvensis (VIOAR) = test: greenhouse post-emergence herbicidal activity; conditions: 500 g ai/ha, 20 DAT
From the text: as §9, §2, §3, §4, §5, §6, §7, §8

[8] = system: Apera spica-venti (APESV); test: greenhouse post-emergence herbicidal activity; conditions: 500 g ai/ha, 20 DAT
From the text: as §9, §2, §3, §4, §5, §6, §7, §8

Stellaria media (STEME) = test: greenhouse post-emergence herbicidal activity; conditions: 20 DAT
From the text: as §9, §2, §3, §4, §5, §6, §7, §8

Lamium purpureum (LAMPU) = test: greenhouse post-emergence herbicidal activity; conditions: 500 g ai/ha, 20 DAT
From the text: as §9, §2, §3, §4, §5, §6, §7, §8

[9] = system: Matricaria inermis (MATIN); test: greenhouse post-emergence herbicidal activity; conditions: 250 g ai/ha, read-out: observed % activity
From the text: as §9, §2, §3, §4, §5, §6, §7, §8

## CCC(CC)Nc1c([N+](=O)[O-])cc(C)c(C)c1[N+](=O)[O-] [pendimethalin]
Thlaspi arvense (THLAR) [1]; 192 h, 8 DAT
  inhibition at 125 g/ha: 0%
Thlaspi arvense (THLAR) [1]; 480 h, 20 DAT
  inhibition at 125 g/ha: 20%
Galium aparine (GALAP); 192 h, 8 DAT
  inhibition at 125 g/ha: 0%
  inhibition at 250 g/ha: 0%
Galium aparine (GALAP); 480 h, 20 DAT
  inhibition at 125 g/ha: 0%
  inhibition at 250 g/ha: 0%
Veronica persica (VERPE); 192 h, 8 DAT
  inhibition at 250 g/ha: 65%
  inhibition at 500 g/ha: 65%
  inhibition at 1000 g/ha: 70%
Veronica persica (VERPE); 480 h, 20 DAT
  inhibition at 250 g/ha: 85%
  inhibition at 500 g/ha: 85%
  inhibition at 1000 g/ha: 90%
[2]; 192 h, 8 DAT
  inhibition at 125 g/ha: 0%
  inhibition at 250 g/ha: 30%
[2]; 480 h, 20 DAT
  inhibition at 125 g/ha: 0%
  inhibition at 250 g/ha: 0%
Bromus inermis (BROIN); 192 h, 8 DAT
  inhibition at 125 g/ha: 20%
  inhibition at 250 g/ha: 20%
Bromus inermis (BROIN); 480 h, 20 DAT
  inhibition at 125 g/ha: 0%
  inhibition at 250 g/ha: 0%
Avena fatua (AVEFA); 192 h, 8 DAT
  inhibition at 125 g/ha: 0%
Avena fatua (AVEFA); 480 h, 20 DAT
  inhibition at 125 g/ha: 0%
[3]; 192 h, 8 DAT
  inhibition at 500 g/ha: 50%
[3]; 480 h, 20 DAT
  inhibition at 500 g/ha: 85%
Thlaspi arvense (THLAR) [4]; 250 g ai/ha, 20 DAT
  observed activity in % destruction 20 days after treatment: 80%
Thlaspi arvense (THLAR) [4]; 1000 g ai/ha, 20 DAT
  observed activity in % destruction 20 days after treatment: 90%
Thlaspi arvense (THLAR) [4]; 168 h, 250 g ai/ha, 7 DAT
  inhibition at 250 g/ha: 55%
Thlaspi arvense (THLAR) [4]; 480 h, 250 g ai/ha, 20 DAT
  inhibition at 250 g/ha: 80%
[5]; 20 DAT
  observed activity in % destruction 20 days after treatment: 45%
[5]; 168 h, 7 DAT
  inhibition at 250 g/ha: 35%
[5]; 480 h, 20 DAT
  inhibition at 250 g/ha: 45%
[6]
  observed activity in % destruction 20 days after treatment: 95%
[7]
  observed activity in % destruction 20 days after treatment: 80%
Viola arvensis (VIOAR)
  observed activity in % destruction 20 days after treatment: 85%
[8]
  observed activity in % destruction 20 days after treatment: 10%
Stellaria media (STEME); 250 g ai/ha
  observed activity in % destruction 20 days after treatment: 85%
Stellaria media (STEME); 1000 g ai/ha
  observed activity in % destruction 20 days after treatment: 90%
Lamium purpureum (LAMPU)
  observed activity in % destruction 20 days after treatment: 90%
[9]; 168 h, 7 DAT
  inhibition at 250 g/ha: 0%
[9]; 480 h, 20 DAT
  inhibition at 250 g/ha: 0%
